Blank lines part the entries; values can stand above or below the molecule they belong to.
Tests used:
MKN-45 [1] = assay: Antiproliferative activity against human MKN-45 cells assessed as inhibition of cell growth measured after 72 hrs by Cell Titer blue assay; assay type: functional, cell-based; conditions: MKN-45, 72 h
[2] = biological target: T1, Hepatocyte growth factor receptor (Homo sapiens, UniProt P08581); assay: Inhibition of human GST tagged c-Met CD expressed in Sf9 cells using poly(Glu:Tyr) as substrate incubated for 5 mins in presence of ATP by horseradish peroxidase based ELISA method
CT26 = assay: Antiproliferative activity against CT26 cells assessed as inhibition of cell growth; assay type: functional, cell-based; conditions: Mus musculus
[3] = biological target: T1, Hepatocyte growth factor receptor; assay: Inhibition of MET (unknown origin)
EBC-1 [4] = assay: cells; conditions: Homo sapiens
MKN-45 [5] = assay: cells; conditions: Homo sapiens
EBC-1 [6] = assay: Antiproliferative activity against human EBC-1 cells assessed as inhibition of cell growth measured after 72 hrs by CellTiter-Glo assay; assay type: functional, cell-based; conditions: EBC-1, 72 h
MKN-45 [7] = assay: Antiproliferative activity against human MKN-45 cells assessed as inhibition of cell growth measured after 72 hrs by CellTiter-Glo assay; assay type: functional, cell-based; conditions: MKN-45, 72 h
[8] = Oral bioavailability in mouse; assay type: ADME, organism-based; conditions: in vivo
MHCC97H = assay: cells; conditions: Homo sapiens, 72 h
[9] = Metabolic stability in human liver microsomes assessed as half life; assay type: ADME, Microsome
[10] = Metabolic stability in mouse liver microsomes assessed as half life; assay type: ADME, Microsome
[11] = Metabolic stability in rat liver microsomes assessed as half life; assay type: ADME, Microsome
EBC-1 [12] = assay: Antiproliferative activity against human EBC-1 cells assessed as inhibition of cell growth measured after 3 days by CellTiter-Glo assay; assay type: functional, cell-based; conditions: EBC-1, 72 h
Hs746T [13] = assay: Antiproliferative activity against human Hs746T cells assessed as inhibition of cell growth measured after 4 days by CellTiter-Glo assay; assay type: functional, cell-based; conditions: 96 h
SNU-5 = assay: cells; conditions: Homo sapiens
Hs746T [14] = assay: cells; conditions: Homo sapiens
GTL 16 cell line = assay: Antiproliferative activity against human GTL 16 cell line assessed as inhibition of cell growth; assay type: functional, cell-based
NCI-H1703 = assay: Antiproliferative activity against human NCI-H1703 cells assessed as inhibition of cell growth; assay type: functional, cell-based
A549 [15] = assay: Antiproliferative activity against human A549 cells assessed as inhibition of cell growth; assay type: functional, cell-based
NCI-H1993 = assay: Antiproliferative activity against human NCI-H1993 cells assessed as inhibition of cell growth; assay type: functional, cell-based
NCI-H441 = assay: Antiproliferative activity against human NCI-H441 cells assessed as inhibition of cell growth measured after 48 hrs by MTS assay; assay type: functional, cell-based; conditions: NCI-H441, 48 h
NCI-H460 = assay: Antiproliferative activity against human NCI-H460 cells assessed as inhibition of cell growth measured after 48 hrs by MTS assay; assay type: functional, cell-based; conditions: NCI-H460, 48 h
MKN-45 [16] = assay: Antiproliferative activity against human MKN-45 cells assessed as inhibition of cell growth measured after 48 hrs by MTS assay; assay type: functional, cell-based; conditions: MKN-45, 48 h
A549 [17] = assay: Antiproliferative activity against human A549 cells assessed as inhibition of cell growth measured after 48 hrs by MTS assay; assay type: functional, cell-based; conditions: A549, 48 h

Structure (SMILES): Cc1[nH]c(/C=C2\C(=O)Nc3ccc(S(=O)(=O)N(C)c4cccc(Cl)c4)cc32)c(C)c1C(=O)N1CCN(C)CC1
- IC50 [2]: 10 nM

Structure (SMILES): COc1cc2c(Oc3ccc(-c4cnc(Nc5ccc(F)cc5)n(C)c4=O)nc3)ccnc2cc1OCCCN1CCOCC1
- IC50 (CT26): 59 nM

Structure (SMILES): COc1ccc2c(Oc3ccc(NC(=O)c4c(C)n(CC(C)(C)O)n(-c5ccccc5)c4=O)nc3)ccnc2c1
- IC50 [3]: 2 nM

Structure (SMILES): C[C@H]1CNC(=O)c2c(N)nn3ccc(nc23)NCc2c(ccc(F)c2C#N)O1
- IC50 (MKN-45 [5]): 297 nM

Structure (SMILES): CCN1Cc2c(ccc(F)c2C#N)O[C@H](C)CNC(=O)c2c(N)nn3ccc1nc23
- IC50 (MKN-45 [5]): 251 nM

Structure (SMILES): [2H]C([2H])[C@]([2H])(c1cccc(-c2ncc(OCC3CCN(C)CC3)cn2)c1)n1nc(-c2cccc(C#N)c2)ccc1=O
- bioavailability [8]: 104%
- IC50 (MHCC97H): 37 nM

Structure (SMILES): CC(C)(O)CN1CCC(COc2cnc(-c3cccc(Cn4c(=O)ccn5c6cc(C#N)ccc6nc45)c3)nc2)CC1
- bioavailability [8]: 82.3%
- IC50 (EBC-1 [12]): 4.81 nM
- IC50 (Hs746T [13]): 1.5 nM

Structure (SMILES): CCOc1ccn(-c2ccc(F)cc2)c(=O)c1C(=O)Nc1ccc(Oc2ccnc(N)c2Cl)c(F)c1 [BMS-777607]
- IC50 (GTL 16 cell line): 100 nM

Structure (SMILES): CCN1Cc2c(ccc(F)c2C#N)O[C@@H](C)CNC(=O)c2c(N)nn3ccc1nc23 [ELZOVANTINIB]
- IC50 (SNU-5): 0.17 nM
- IC50 (MKN-45 [5]): 0.2 nM

Structure (SMILES): CN1CCN(C2CCN(C(=O)Nc3cc(Oc4ccc(NC(=O)C5(C(=O)Nc6ccc(F)cc6)CC5)c(F)c4)ccn3)CC2)CC1 [GOLVATINIB]
- IC50 (EBC-1 [4]): 24 nM
- IC50 (SNU-5): 6.2 nM
- IC50 (MKN-45 [5]): 37 nM
- IC50 (Hs746T [14]): 23 nM

Structure (SMILES): Cc1ccc(C(=O)Nc2ccc(Oc3cc4cnn(C)c4cc3-c3cn[nH]c3)c(F)c2)c(=O)n1-c1ccc(F)cc1 [MERESTINIB]
- IC50 (NCI-H1703): 72.9 nM
- IC50 (A549 [15]): 628 nM
- IC50 (NCI-H1993): 9.28 nM

Structure (SMILES): Cc1c(C(=O)Nc2ccc(Oc3ccnc4cc(OCC(C)(C)O)ccc34)c(F)c2)c(=O)n(-c2ccccc2)n1C [NINGETINIB]
- IC50 (SNU-5): 60 nM
- IC50 (MKN-45 [5]): 7 nM
- IC50 (Hs746T [14]): 140 nM

Structure (SMILES): O=C1NC(=O)[C@@H](c2cn3c4c(cccc24)CCC3)[C@@H]1c1c[nH]c2ccccc12 [TIVANTINIB]
- IC50 (NCI-H441): 300 nM
- IC50 (NCI-H460): 600 nM
- IC50 (MKN-45 [16]): 580 nM
- IC50 (A549 [17]): 590 nM

Now from value to molecule, other results behind:

- IC50 (MKN-45 [1]): 150 nM
Structure (SMILES): C[C@@H](Oc1cc(C(=O)Nc2ccc(C(=O)N3CCN(C)CC3)cc2)nnc1N)c1c(Cl)ccc(F)c1Cl

- IC50 (EBC-1 [4]): 17 nM
- IC50 (MKN-45 [5]): 25 nM
Structure (SMILES): [2H]c1ccc2cc(C(F)(F)c3nnc4ccc(-c5cnn(C)c5)nn34)ccc2n1

- IC50 (MKN-45 [7]): 670 nM
Structure (SMILES): Fc1ccc(Cl)c(C2(c3n[nH]c4ncc(-c5cnn(C6CCNCC6)c5)cc34)CC2)c1Cl
- IC50 (EBC-1 [6]): 1190 nM

- half-life [9]: 62.1 min
- half-life [10]: 49.1 min
- IC50 (MHCC97H): 8.8 nM
- half-life [11]: 36.5 min
Structure (SMILES): C[C@H](c1cccc(-c2ncc(OCC3CCN(C)CC3)cn2)c1)n1cc(-c2cc(C#N)ccn2)cc(F)c1=O

- IC50 (MKN-45 [7]): 1490 nM
Structure (SMILES): [O-][S+](c1c(Cl)ccc(F)c1Cl)c1c[nH]c2ncc(-c3cnn(C4CCNCC4)c3)cc12 (centres undefined)
- IC50 (EBC-1 [6]): 1590 nM

- IC50 (EBC-1 [4]): 2.22 nM
- IC50 (SNU-5): 4.34 nM
- IC50 (MKN-45 [5]): 3.18 nM
- IC50 (Hs746T [14]): 2 nM
Structure (SMILES): CN1CCN(Cc2ccc(-c3cnc(N4CCOC(Cn5nnc6ncc(-c7cnn(C)c7)nc65)C4)nc3)cc2)CC1 (centres undefined)

- IC50 (EBC-1 [4]): 8.4 nM
- IC50 (MKN-45 [5]): 18.6 nM
Structure (SMILES): Cn1cc(-c2ccc3nnc(C(F)(F)c4ccc5ncccc5c4)n3n2)cn1 [JNJ-38877605]

Reference: ChEMBL document CHEMBL5352505, “Targeting MET: Discovery of Small Molecule Inhibitors as Non-Small Cell Lung Cancer Therapy” (J Med Chem, 2023)
